Assay results: paper PMC4721062, “Oxadiazole-2-oxides may have other functional targets, in addition to SjTGR, through which they cause mortality in Schistosoma japonicum” (Parasites & Vectors, 2016)
Where two headings read alike, the source gives them in different places.

Assays:
juvenile S. japonicum = assay: microbe, parasite or virus in culture; format: cell-based; details: juvenile worms; for killing at 2 µM / killing at 5 µM / killing at 50 µM: Schistosoma japonicum; for Killing activity 24hr / Killing activity 48hr / Killing activity 72hr: 10 μM
Procedure: Infected Oncomelania hupensis, provided by the Department of Snail Biology, Jiangsu Institute of Parasitic Diseases, were incubated at 25–28 °C, under illumination, for 2 h to hatch S. japonicum cercariae. The cercariae were collected from the water surface with clean cover glass and placed into a centrifuge tube using pre cooled RPMI 1640. Centrifugation was performed for 1 min at 1500 rpm, and then the steps above were repeated. After centrifugation, the supernatant solution was removed. The cercariae at the bottom were washed twice and resuspended with RPMI 1640. Approximately 20–30 cercariae (1 mL of the resuspension medium) were added to one well in a 24-well culture plate. They were incubated overnight at 37 °C with 5 % CO2. The survival rates and number of tails shed were observed under an inverted microscope. Cercariae that had shed their tails were used as juvenile S. japonicum.
20–30 juvenile worms were transferred into each well of a 24-well culture plate, containing 2 mL RPMI 1640 medium, 20 mM HEPES, 100 IU/mL penicillin, […] streptomycin and 10 % fetal bovine serum. Then, oxadiazole-2-oxides (2, 5, 10, and 50 μM), diluted with the RPMI 1640 medium, were added to their allocated wells. The worms in the negative control wells were treated with equal volumes of RPMI 1640 or DMSO and worms treated with AS were observed as positive controls. The juvenile worms’ survival rates were observed under an inverted phase contrast microscope (Leica, Wetzlar, Germany) at 24, 48 and 72 h. Parasite death was defined as an unclear internal structure of the juvenile worms, with incomplete tegument and contents overflowing radially, or unclear internal structure with complete tegument, but having no motor activity during 1 min of continuous observation. All assays were repeated three times.
^b Data collected by visual examination of worm movement and shape; % D = The number of worms dead / The total number of worms observed, and worms dead judged by unclear internal structure of juvenile worms with uncompleted tegument, and contents overflowing radially, or unclear internal structure with complete tegument, but having no motor activity during 1 min of continuous observation. The data presented are the average of three independent experiments.

recombinant SjTGR = biological target: T1, recombinant SjTGR (Schistosoma japonicum, UniProt B5THG7); assay: Inhibition of TrxR activity of recombinant SjTGR (DTNB assay); format: biochemical; details: 50 nM SjTGR, 1 mM NADPH, 15 min preincubation, DTNB reduction; for IC50: read-out: IC50 of SjTGR
T1 sequence (B5THG7 1-596): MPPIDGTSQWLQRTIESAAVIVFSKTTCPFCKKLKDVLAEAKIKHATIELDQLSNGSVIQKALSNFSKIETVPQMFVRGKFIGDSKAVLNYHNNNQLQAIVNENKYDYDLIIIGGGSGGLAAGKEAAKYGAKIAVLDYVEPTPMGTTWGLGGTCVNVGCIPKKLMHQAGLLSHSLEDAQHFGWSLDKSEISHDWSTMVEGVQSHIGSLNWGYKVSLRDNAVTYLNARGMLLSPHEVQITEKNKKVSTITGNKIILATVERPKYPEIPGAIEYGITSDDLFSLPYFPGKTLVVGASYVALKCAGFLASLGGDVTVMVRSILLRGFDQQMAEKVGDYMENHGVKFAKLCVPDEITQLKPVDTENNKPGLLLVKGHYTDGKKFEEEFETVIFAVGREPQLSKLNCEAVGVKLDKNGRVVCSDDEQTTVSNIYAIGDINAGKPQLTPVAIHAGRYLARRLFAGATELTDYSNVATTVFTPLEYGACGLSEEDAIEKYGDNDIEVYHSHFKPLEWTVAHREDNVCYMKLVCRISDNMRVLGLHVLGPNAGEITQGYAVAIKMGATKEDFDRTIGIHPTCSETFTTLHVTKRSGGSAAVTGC
Procedure: The purified recombinant SjTGR proteins were produced according to the method described by Song et al.. The inhibition of TrxR activity by the recombinant SjTGR was performed as reported by Rai et al.. Briefly, 50 nM SjTGR and 1 mM NADPH were incubated with different concentrations of oxadiazole-2-oxides (2, 4, 6, 10, 20 μM) for 15 min at room temperature. Then, potassium phosphate buffer (pH 7.4) containing 10 mM EDTA, 100 μM NADPH, and 3 mM DTNB was added to start the reaction. The increase of absorbance at 412 nm was monitored during the first 2 min. All assays were done in triplicate.
50 nM SjTGR and 1 mM NADPH were incubated with different concentrations of oxadiazole-2-oxides (2, 4, 6, 10, 20 μM) for 15 min at room temperature. Then, potassium phosphate buffer (pH 7.4) containing 10 mM EDTA, 100 μM NADPH, 3 mM DTNB was added to start the reaction. The increase in absorbance at 412 nm was monitored during the first 2 min. All assays were done in triplicate. Results shown are the mean ± SD (n = 3)

adult S. japonicum = assay: microbe, parasite or virus in culture; format: cell-based; details: adult worms
Text: ICR mice (20–22 g), were obtained from the Shanghai Sub-Center of Experimental Animals, Chinese Academy of Sciences. They were maintained at the Department of Experimental Animals, Jiangsu Institute of Parasitic Diseases. To infect each mouse, its abdominal skin was exposed to 50 S. japonica cercariae. All of the mice were executed to collect S. japonica adult worms, through portal vein perfusion, 35 days post-infection. The adult S. japonica collected were washed with RPMI 1640 medium and then kept in RPMI 1640 medium (pH 7.5) with HEPES 20 mM, penicillin (100 IU/mL), streptomycin ([…]) and 10 % fetal bovine serum. Then, two pairs of adult worms were transferred into each well of a 24-well culture plate, with 2 mL of the same medium. The worms were cultured at 37 °C in a humid atmosphere with 5 % CO2.
Adult worms were cultured in a 24-well culture plate for 30–60 min at 37 °C, in a humid atmosphere with 5 % CO2. Then, oxadiazole-2-oxides at different concentrations (10, 25, 50, 100 μM) were added. Equal volumes of RPMI 1640 or DMSO were applied as negative controls, while PZQ was applied as a positive control. The adult worm mobility and parasite survival rates were monitored using an inverted phase contrast microscope, at 24, 48 and 72 h. Parasite death was defined as there being no motor activity during 2 min of continuous observation, and morphological and tegumental alterations. All assays were repeated three times.
^b Data collected by visual examination of worm movement and shape; n.e. […] The data presented are the average of three independent experiments.

[1] = 24 h, read-out: Killing activity 24hr
[2] = 48 h, read-out: Killing activity 48hr
[3] = 72 h, read-out: Killing activity 72hr
[4] = Schistosoma japonicum, 50 μM, 72 h, read-out: Killing activity 72hr
[5] = Schistosoma japonicum, 100 μM, 72 h, read-out: Killing activity 72hr

Row | Compound | killing at 2 µM (juvenile S. japonicum; [1]) | killing at 2 µM (juvenile S. japonicum; [2]) | killing at 2 µM (juvenile S. japonicum; [3]) | killing at 5 µM (juvenile S. japonicum; [1]) | killing at 5 µM (juvenile S. japonicum; [2]) | killing at 5 µM (juvenile S. japonicum; [3]) | killing at 50 µM (juvenile S. japonicum; [1]) | killing at 50 µM (juvenile S. japonicum; [2]) | killing at 50 µM (juvenile S. japonicum; [3]) | Killing activity 24hr (juvenile S. japonicum; 24 h) | Killing activity 48hr (juvenile S. japonicum; 48 h) | Killing activity 72hr (juvenile S. japonicum; 72 h) | IC50 of SjTGR (recombinant SjTGR) | IC50 (recombinant SjTGR) | killing at 50 µM (adult S. japonicum; [4]) | killing at 100 µM (adult S. japonicum; [5]) | Killing activity 24hr (adult S. japonicum; 10 μM, 24 h) | Killing activity 48hr (adult S. japonicum; 10 μM, 48 h) | Killing activity 72hr (adult S. japonicum; 10 μM, 72 h) | Killing activity 24hr (adult S. japonicum; 25 μM, 24 h) | also measured
1 | N#Cc1c(-c2ccc(COc3ccc4ccccc4c3C=O)cc2)no[n+]1[O-] [Compound 27] | 9.1% | 9.1% | 10.6% | 14.9% | 25.7% | 27% | 40% | 44.4% | 46.7% | 15.6%D | 24.4%D | 30.0%D | did not inhibit | > 20 µM | 87.5% | 77.8% | n.e. | n.e. | 62.5%D | sluggish | killing at 25 µM (adult S. japonicum; Schistosoma japonicum, 25 μM, 72 h, read-out: Killing activity 72hr): 75%; killing at 100 µM (adult S. japonicum; Schistosoma japonicum, 100 μM, 24 h, read-out: Killing activity 24hr): 22.2%; killing at 100 µM (adult S. japonicum; Schistosoma japonicum, 100 μM, 48 h, read-out: Killing activity 48hr): 33.3%; Killing activity 48hr (adult S. japonicum; 25 μM, 48 h): sluggish; Killing activity 24hr (adult S. japonicum; 50 μM, 24 h): sluggish; Killing activity 48hr (adult S. japonicum; 50 μM, 48 h): sluggish
2 | N#Cc1c(-c2ccc(COc3cc(=O)oc4ccccc34)cc2)no[n+]1[O-] [Compound 29] | 30% | 30% | 30% | 30% | 32.5% | 40% | 42.3% | 51.9% | 75% | 30.2%D | 31.7%D | 65.1%D | did not inhibit | > 20 µM | 16.7% | 66.7% | n.e. | n.e. | n.e. | n.e. | Killing activity 48hr (adult S. japonicum; 25 μM, 48 h): n.e.; Killing activity 72hr (adult S. japonicum; 25 μM, 72 h): sluggish; Killing activity 24hr (adult S. japonicum; 50 μM, 24 h): n.e.; Killing activity 48hr (adult S. japonicum; 50 μM, 48 h): sluggish; Killing activity 24hr (adult S. japonicum; 100 μM, 24 h): n.e.; Mortality of adult worms (adult S. japonicum; 100 μM, 24 h): did not cause death; Killing activity 48hr (adult S. japonicum; 100 μM, 48 h): sluggish
